Structures are written as SMILES. Like-named read-outs stand apart in the source and are kept apart here.

The target of assay [1] is mutant G2019S LRRK2 (Homo sapiens (Human), UniProt Q5S007, G2019S). The experiment in a line: LRRK2 kinase assay (LanthaScreen), G2019S mutant. The conditions noted are these: G2019S mutant LRRK2, read-out: LRRK2, G2019S IC50. The class given is biochemical. In outline:
(§1)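 GST-tagged truncated enzyme (2 μg/mL) phosphorylates 100 nM fluorescein-LRRKtide with 1 mM ATP in HEPES pH 7.5, 3 mM MgCl2, DTT, Brij35; 30 min, room temperature, compound dose response top 3 μM. Stopped with EDTA; phospho-ERM detected by terbium anti-phospho-ERM TR-FRET; identical conditions for both enzymes.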
(In TR-FRET formats the signal depends on donor and acceptor labels being close together.)

Assay [2] has as its target LRRK2, WT (GST-tagged truncated LRRK2) (Homo sapiens, UniProt Q5S007). The experiment in a line: LRRK2 kinase assay (LanthaScreen), wild type. Type of assay: biochemical. The conditions noted are these: wild type LRRK2. In outline: as §1
[3] abbreviates: LanthaScreen, LRRKtide substrate.
Where [4] appears, read: data obtained using the formate salt of the Example.

Sequence of mutant G2019S LRRK2 (Q5S007 whole entry G2019S, the tested form may be a part): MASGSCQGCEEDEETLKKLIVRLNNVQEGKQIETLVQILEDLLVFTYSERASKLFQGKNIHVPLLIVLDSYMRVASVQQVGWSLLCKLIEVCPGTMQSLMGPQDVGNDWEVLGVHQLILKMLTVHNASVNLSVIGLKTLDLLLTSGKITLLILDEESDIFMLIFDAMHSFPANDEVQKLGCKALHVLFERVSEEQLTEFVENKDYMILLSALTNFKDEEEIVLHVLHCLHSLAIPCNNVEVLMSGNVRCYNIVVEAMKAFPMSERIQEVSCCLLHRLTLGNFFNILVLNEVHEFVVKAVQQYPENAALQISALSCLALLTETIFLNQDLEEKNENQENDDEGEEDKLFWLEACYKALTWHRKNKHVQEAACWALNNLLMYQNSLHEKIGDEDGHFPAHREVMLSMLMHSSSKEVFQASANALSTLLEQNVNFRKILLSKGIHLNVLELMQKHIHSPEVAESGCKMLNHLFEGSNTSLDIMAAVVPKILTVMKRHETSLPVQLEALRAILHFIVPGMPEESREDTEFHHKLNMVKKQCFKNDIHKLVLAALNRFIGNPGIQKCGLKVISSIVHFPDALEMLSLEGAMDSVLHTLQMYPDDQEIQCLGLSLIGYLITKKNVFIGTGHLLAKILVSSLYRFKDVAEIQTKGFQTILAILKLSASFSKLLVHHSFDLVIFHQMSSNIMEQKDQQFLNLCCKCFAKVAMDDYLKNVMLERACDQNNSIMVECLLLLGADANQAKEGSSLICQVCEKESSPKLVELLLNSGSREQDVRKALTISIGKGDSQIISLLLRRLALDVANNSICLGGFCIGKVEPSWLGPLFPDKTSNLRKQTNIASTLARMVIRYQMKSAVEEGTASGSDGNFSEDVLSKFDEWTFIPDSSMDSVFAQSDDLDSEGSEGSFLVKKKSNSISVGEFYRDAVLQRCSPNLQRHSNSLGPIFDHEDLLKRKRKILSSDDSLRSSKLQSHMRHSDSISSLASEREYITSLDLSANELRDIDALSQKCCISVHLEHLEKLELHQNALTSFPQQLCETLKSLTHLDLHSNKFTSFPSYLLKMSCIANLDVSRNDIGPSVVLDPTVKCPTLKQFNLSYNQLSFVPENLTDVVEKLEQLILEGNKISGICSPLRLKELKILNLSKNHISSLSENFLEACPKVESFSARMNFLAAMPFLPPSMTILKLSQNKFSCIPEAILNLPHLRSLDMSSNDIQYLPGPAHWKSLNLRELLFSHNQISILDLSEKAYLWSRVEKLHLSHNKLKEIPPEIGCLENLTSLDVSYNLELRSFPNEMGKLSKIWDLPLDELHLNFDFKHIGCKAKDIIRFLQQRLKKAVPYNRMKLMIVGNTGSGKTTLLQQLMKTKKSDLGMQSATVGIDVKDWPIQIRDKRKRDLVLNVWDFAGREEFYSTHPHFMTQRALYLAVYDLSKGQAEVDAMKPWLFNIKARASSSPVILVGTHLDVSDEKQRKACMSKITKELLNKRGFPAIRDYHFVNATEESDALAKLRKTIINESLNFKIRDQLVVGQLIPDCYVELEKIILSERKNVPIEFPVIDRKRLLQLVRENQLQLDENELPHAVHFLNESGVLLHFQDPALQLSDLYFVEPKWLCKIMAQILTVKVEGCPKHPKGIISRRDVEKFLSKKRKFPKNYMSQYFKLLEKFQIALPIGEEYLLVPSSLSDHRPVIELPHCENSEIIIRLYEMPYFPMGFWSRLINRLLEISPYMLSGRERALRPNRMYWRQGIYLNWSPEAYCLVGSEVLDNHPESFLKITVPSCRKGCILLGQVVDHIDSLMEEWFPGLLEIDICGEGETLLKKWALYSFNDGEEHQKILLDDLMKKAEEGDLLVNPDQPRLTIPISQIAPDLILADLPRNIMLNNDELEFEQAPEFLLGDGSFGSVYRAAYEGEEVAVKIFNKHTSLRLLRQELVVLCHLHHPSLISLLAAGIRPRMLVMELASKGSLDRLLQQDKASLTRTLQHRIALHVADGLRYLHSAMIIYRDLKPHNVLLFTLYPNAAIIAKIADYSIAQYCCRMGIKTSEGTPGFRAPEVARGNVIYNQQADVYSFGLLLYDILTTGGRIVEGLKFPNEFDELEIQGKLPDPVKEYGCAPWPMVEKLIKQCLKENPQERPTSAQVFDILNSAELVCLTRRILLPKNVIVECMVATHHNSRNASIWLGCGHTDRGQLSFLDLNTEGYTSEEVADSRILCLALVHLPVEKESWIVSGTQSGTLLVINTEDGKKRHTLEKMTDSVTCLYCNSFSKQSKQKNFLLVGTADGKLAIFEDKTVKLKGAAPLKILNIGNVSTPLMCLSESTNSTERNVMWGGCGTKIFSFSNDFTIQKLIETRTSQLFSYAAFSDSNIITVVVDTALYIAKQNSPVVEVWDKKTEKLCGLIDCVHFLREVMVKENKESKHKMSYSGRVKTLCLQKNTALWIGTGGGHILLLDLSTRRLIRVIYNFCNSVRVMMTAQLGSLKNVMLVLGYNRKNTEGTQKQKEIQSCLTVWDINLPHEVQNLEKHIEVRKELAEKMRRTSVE

Turning to `Cc1nn2cc(Cc3nc4cnc5ccc(F)cc5c4n3[C@@H]3CCO[C@H](C)C3)nc2s1` [Example 28, 8-fluoro-2-[(2-methylimidazo[2,1-b][1,3,4]thiadiazol-6-yl)methyl]-1-[(2R,4R)-2-methyltetrahydro-2H-pyran-4-yl]-1H-imidazo[4,5-c]quinoline], the IC50 (as a rule, the concentration at which inhibition is half-maximal) amounted to 4.59 nM in assay [1] (setting [3]) and 7.18 nM in assay [2] (setting [3]).

As to `CN1CC(n2c(Cc3ncn(C)n3)nc3cnc4ccc(Cl)cc4c32)C(F)(F)C1` (stereo not shown) [Example 84, 8-chloro-1-(4,4-difluoro-1-methylpyrrolidin-3-yl)-2-[(1-methyl-1H-1,2,4-triazol-3-yl)methyl]-1H-imidazo[4,5-c]quinoline], the IC50 was determined as 18.2 nM in assay [1] (setting [3]) and 10.2 nM in assay [2] (setting [3]).

In the case of `CN1CC(n2c(Cn3cc(C4CC4)nn3)nc3cnc4ccc(Cl)cc4c32)C(F)(F)C1` (stereo not shown) [Example 47, 8-chloro-2-[(4-cyclopropyl-1H-1,2,3-triazol-1-yl)methyl]-1-(4,4-difluoro-1-methylpyrrolidin-3-yl)-1H-imidazo[4,5-c]quinoline], the results for the IC50 in assay [1] (setting [3]) and in assay [2] (setting [3]) were 1.42 nM and 2.8 nM, respectively.

`C[C@@H]1C[C@H](n2c(Cc3cnc(C(F)(F)F)cn3)nc3cnc4ccc(C#N)cc4c32)CCO1` [Example 39, 1-[(2R,4R)-2-methyltetrahydro-2H-pyran-4-yl]-2-{[5-(trifluoromethyl)pyrazin-2-yl]methyl}-1H-imidazo[4,5-c]quinoline-8-carbonitrile]: the values for the IC50 in assay [1] (setting [3]) and in assay [2] (setting [3]) were 9.3 nM and 17.4 nM, respectively.

As for `Cc1cc(Cc2nc3cnc4ccc(Cl)cc4c3n2C2CCOC(C(F)F)C2)no1` (stereo not drawn) [Example 59, 8-chloro-1-[cis-2-(difluoromethyl)tetrahydro-2H-pyran-4-yl]-2-[(5-methyl-1,2-oxazol-3-yl)methyl]-1H-imidazo[4,5-c]quinoline], the IC50 in assay [1] (setting [3]) is 8.16 nM; in assay [2] (setting [3]), 6.6 nM.

As for `Cc1cnc(Cc2nc3cnc4ccc(C#N)cc4c3n2[C@@H]2CCN(C)C2)cn1` [Example 33, 2-[(5-methylpyrazin-2-yl)methyl]-1-[(3R)-1-methylpyrrolidin-3-yl]-1H-imidazo[4,5-c]quinoline-8-carbonitrile], the IC50 in assay [1] (setting [4]) is 6.82 nM; in assay [2] (setting [4]), 8.35 nM.

As to `Cc1nc(Cc2nc3cnc4ccc(Cl)cc4c3n2[C@@H]2CCN(C)C2)no1` [Example 42, 8-chloro-2-[(5-methyl-1,2,4-oxadiazol-3-yl)methyl]-1-[(3R)-1-methylpyrrolidin-3-yl]-1H-imidazo[4,5-c]quinoline], the IC50 in assay [1] (setting [3]) was determined as 26 nM; in assay [2] (setting [3]) it was 12.9 nM.

Regarding `Cc1nc(Cc2nc3cnc4ccc(C#N)cc4c3n2[C@@H]2CCN(CC(F)(F)F)C2)no1` [Example 56, 2-[(5-methyl-1,2,4-oxadiazol-3-yl)methyl]-1-[(3R)-1-(2,2,2-trifluoroethyl)pyrrolidin-3-yl]-1H-imidazo[4,5-c]quinoline-8-carbonitrile], the IC50 in assay [1] (setting [3]) amounted to 6.48 nM; in assay [2] (setting [3]) it was 6.46 nM.

As to `Cc1nnn(Cc2nc3cnc4ccc(C(F)(F)F)cc4c3n2[C@@H]2CCO[C@H](C)C2)n1` [Example 81, 1-[(2R,4R)-2-methyltetrahydro-2H-pyran-4-yl]-2-[(5-methyl-2H-tetrazol-2-yl)methyl]-8-(trifluoromethyl)-1H-imidazo[4,5-c]quinoline], the IC50 in assay [1] (setting [3]) turned out to be 7.5 nM; in assay [2] (setting [3]), 16.9 nM.

In the case of `CN1CC(n2c(Cn3cnnn3)nc3cnc4ccc(Cl)cc4c32)C(F)(F)C1` (stereo not shown) [Example 83, 8-chloro-1-(4,4-difluoro-1-methylpyrrolidin-3-yl)-2-(1H-tetrazol-1-ylmethyl)-1H-imidazo[4,5-c]quinoline], the IC50 turned out to be 11.6 nM in assay [1] (setting [3]) and 7.91 nM in assay [2] (setting [3]).

With `Cc1cnc(Cc2nc3cnc4ccc(Cl)cc4c3n2[C@@H]2CC[C@H](F)C2)cn1` (relative stereo) [Example 77, 8-chloro-1-[cis-3-fluorocyclopentyl]-2-[(5-methylpyrazin-2-yl)methyl]-1H-imidazo[4,5-c]quinoline], the IC50 in assay [1] (setting [3]) turned out to be 11.8 nM; in assay [2] (setting [3]) it was 13 nM.

Regarding `Cc1cnn(Cc2nc3cnc4ccc(C#N)cc4c3n2C2CN(C)CC2(F)F)n1` (single isomer, unassigned) [Example 4, 1-(4,4-Difluoro-1-methylpyrrolidin-3-yl)-2-[(4-methyl-2H-1,2,3-triazol-2-yl)methyl]-1H-imidazo[4,5-c]quinoline-8-carbonitrile], the results for the IC50 in assay [1] (setting [3]) and in assay [2] (setting [3]) were 3.31 nM and 17.6 nM, respectively.

For the molecule `C[C@@H]1C[C@H](n2c(Cc3cnc(C(F)(F)F)cn3)nc3cnc4ccc(F)cc4c32)CCO1` [Example 73, 8-fluoro-1-[(2R,4R)-2-methyltetrahydro-2H-pyran-4-yl]-2-{[5-(trifluoromethyl)pyrazin-2-yl]methyl}-1H-imidazo[4,5-c]quinoline], the results for the IC50 in assay [1] (setting [3]) and in assay [2] (setting [3]) were 13 nM and 16.9 nM, respectively.

Turning to `Cc1cn(Cc2nc3cnc4ccc(Cl)cc4c3n2[C@@H]2CCN(C)C2)nn1` [Example 62, 8-chloro-1-[(3R)-1-methylpyrrolidin-3-yl]-2-[(4-methyl-1H-1,2,3-triazol-1-yl)methyl]-1H-imidazo[4,5-c]quinoline], the IC50 in assay [1] (setting [3]) worked out at 6.5 nM; in assay [2] (setting [3]), 5.78 nM.

For `Cc1nc2cnc3ccc(Cl)cc3c2n1C1CCOC(CC#N)C1` (stereo not drawn) [Example 31, [cis-4-(8-chloro-2-methyl-1H-imidazo[4,5-c]quinolin-1-yl)tetrahydro-2H-pyran-2-yl]acetonitrile], the IC50 in assay [1] (setting [3]) came to 8.67 nM; in assay [2] (setting [3]), 7.86 nM.

In the case of `COc1cnn(Cc2nc3cnc4ccc(C(F)(F)F)cc4c3n2[C@@H]2CCO[C@H](C)C2)c1` [Example 41, 2-[(4-methoxy-1H-pyrazol-1-yl)methyl]-1-[(2R,4R)-2-methyltetrahydro-2H-pyran-4-yl]-8-(trifluoromethyl)-1H-imidazo[4,5-c]quinoline], the IC50 in assay [1] (setting [3]) was 3.87 nM; in assay [2] (setting [3]) it was 11.1 nM.

In the case of `C[C@@H]1C[C@H](n2c(Cc3csnn3)nc3cnc4ccc(C(F)(F)F)cc4c32)CCO1` [Example 63, 1-[(2R,4R)-2-methyltetrahydro-2H-pyran-4-yl]-2-(1,2,3-thiadiazol-4-ylmethyl)-8-(trifluoromethyl)-1H-imidazo[4,5-c]quinoline], the IC50 in assay [1] (setting [3]) amounted to 3.04 nM; in assay [2] (setting [3]) it was 6.96 nM.

The record behind these values is patent US11312713B2, “Imidazo[4,5-C]quinoline derivatives as LRRK2 inhibitors” (Pfizer Inc., priority 2017, dated 2022).
